Measurements published in US20050234073A1, “Methods of inhibiting inflammation” (priority 2003, published 2005).
Marks after values point to notes of the source that are not given here.

Experiments:
[1] = Hapten-induced (oxazolone) colitis; format: in vivo, mouse
Procedure: The hapten-induced colitis model using oxazolone (4-ethoxymethylene-2-phenyl-2-oxazolin-5-one) as the hapten was established in WT B6 or MTP^flox/floxMx1Cre mice as previously described. Briefly, 6 week-old female mice were injected intraperitoneally with vehicle or 500 μg pIpC at days 1, 3, 5 and 7 followed by application of 200 μl of 3% oxazolone (Sigma-Aldrich, St. Louis, Mo.) in 100% ethanol on the abdomen at day 8. On day 14, mice were anesthetized with tribromo-ethanol (Sigma-Aldrich) and 150 μl of 1% oxazolone in 50% ethanol administered per rectum via a 3.5F catheter. Wasting was monitored until day 18 at which time the mice were sacrificed and tissue samples collected for histological examination. Colonic tissue specimens for histological assessment of colitis were fixed in 10% buffered formalin phosphate and embedded in paraffin, cut into 5 micron thick sections and stained with hematoxylin-eosin. The stained paraffin sections were evaluated by for the following parameters of colitis on a scale of 0 to 3 according to known methods: hypervascularity, mononuclear cell infiltration, crypt hyperplasia, epithelial injury or ulceration, polymorphonuclear cell infiltration or crypt abscesses.
The effect of MTPp gene deletion on the clinicopathologic outcome of oxazolone-induced colitis was examined.

[2] = format: in vivo, mouse
Procedure: αGalCer was kindly provided by Dr. Michael Brenner (Brigham and Women's Hospital, Boston, Mass.). […] Mice were sacrificed and sera from peripheral blood subjected to […] (ALT) or aminoaspartate transferase (AST) assays. The kinetic quantitative determination of ALT in serum was performed by ALT/SGPT LIQUI-UV (Stanbio Laboratory, Boeme, Tex.) according to the manufacture's instructions. Fresh liver samples were collected for macroscopic and microscopic inspection. For microscopic examination, liver tissues were immediately fixed in 10% buffered formalin phosphate and embedded in paraffin, cut into sections and stained with hematoxylin-eosin. The clinical response to a hepatocyte mediated, CD1d-dependent response in vivo was evaluated (Osman, Y. et al. Eur. J. Immunol. 30, 1919-1928 (2000)). […] The latter was evident from the absence of elevations of transaminases (FIG. 2D, panels c and d), macroscopic liver necrosis (FIG. 2E, panel d) or microscopic evidence of hepatitis (FIG. 2F, panel d) in the MTP^flox/floxMx1Cre mice that received αGalCer with prior pIpC treatment.

[3] = biological target: recombinant murine CD1d, beta2m associated, purified by baculovirus expression system (mouse) (UniProt P11609); experiment: cell-based or functional assay
[4] = Assessment of plasma lipids and body weight after pIpC treatment; format: in vivo, mouse
Procedure: Female 6-8 week-old of both MTP^pflox/floxMx1Cre mice and WT B6 mice that had been injected intraperitoneally with either PBS as control or 500 μg polyinosinic-polycytidylic ribonucleic acid (pIpC, Sigma, St. Louis, Mo.) in PBS every other day for a total of four doses were sacrificed one or 10 days after the last pIpC injection at which time sera was obtained from peripheral blood. The serum was subjected to total cholesterol and triglyceride assays at the clinical laboratory of Brigham and Women's Hospital (Boston, Mass.).
To further substantiate a direct biochemical relationship between CD1d and MTP, the effects on CD1d expression and function was examined in a conditional MTP-deficient mouse model which contains a “floxed” MTPp gene (MTPp^flox/flox) that had been intercrossed with mice expressing Mx1 promoter controlled, Cre-recombinase (Raabe, M. et al. J. Clin. Invest. 103, 1287-1298 (1999); Bjorkegren, J., Beigneux, A., Bergo, M. O., Maher, J. J. & Young, S. G. J. Biol. Chem. 277, 5476-5483 (2002)). The Mx1 promoter is induced by interferon-inducing substances such as polyinosinic-polycytidylic acid (pIpC) (Raabe, M. et al. J. Clin. Invest. 103, 1287-1298 (1999); Bjorkegren, J., Beigneux, A., Bergo, M. O., Maher, J. J. & Young, S. G. J. Biol. Chem. 277, 5476-5483 (2002); Ralf, K., Schwenk, F., Aguet, M. & Rajewsky, K. Science. 269, 1427-1429 (1995)) such that treatment of MTPp^flox/floxMx1Cre mice with pIpC leads to deletion of the MTPp gene (MTPp^Δ/Δ) primarily within the liver, spleen and intestine providing a degree of tissue specificity to the gene deletion. As previously reported, treatment of 6-10 week old MTPp^flox/floxMx1Cre mice (or MTP^flox/floxMx1Cre mice) with pIpC caused progressive hepatic steatosis (1C) and decreases in serum triglyceride and cholesterol levels (Table 5) in association with decreased MTP mRNA levels as defined by RT-PCR (FIG. 1D) and protein levels (FIG. 1E) in liver and colon.

[5] = tested on: CD1d; experiment: Flow cytometric analysis of CD1d surface expression on splenocytes of pIpC treated mice; format: in vivo, mouse; conditions: for Mean fluorescence intensity: CD1d; for Mean fluorescence intensity / % CD1d+: splenocytes
Text: Mouse cells were stained using the following antibodies: FITC-conjugated α-CD1d (1B1, PharMingen); PE-conjugated α-CD11c (HL3, PharMingen); FITC-conjugated α-1-A^d (AMS-32.1, PharMingen); PE-conjugated α-CD69 (H1.2F3, PharMingen); PE-conjugated α-B220 (RA3-6B2, PharMingen). Human cells were stained using: PE-conjugated α-CD83 (550634, PharMingen); FITC-conjugated α-HLA-A,B,C (557348, PharMingen); α-HLA DR,DP,DQ (32381A, PharMingen); α-CD1d (42.1 or 51.1.3); α-mouse IgG+IgM (AMI1708, Biosource, Camarillo, Calif.). Staining was performed in the presence of Via-Probe (PharMingen) and analyzed with a FACSort flow cytometer (Becton Dickinson).

[6] = C57BL/6J mice, 1 day after treatment
[7] = C57BL/6J mice, 10 days after treatment
[8] = MTPflox/floxMx1Cre mice, 1 day after treatment
[9] = MTPflox/floxMx1Cre mice, 10 days after treatment

Chain of recombinant murine CD1d, beta2m associated, purified by baculovirus expression system (mouse) (P11609 22-305): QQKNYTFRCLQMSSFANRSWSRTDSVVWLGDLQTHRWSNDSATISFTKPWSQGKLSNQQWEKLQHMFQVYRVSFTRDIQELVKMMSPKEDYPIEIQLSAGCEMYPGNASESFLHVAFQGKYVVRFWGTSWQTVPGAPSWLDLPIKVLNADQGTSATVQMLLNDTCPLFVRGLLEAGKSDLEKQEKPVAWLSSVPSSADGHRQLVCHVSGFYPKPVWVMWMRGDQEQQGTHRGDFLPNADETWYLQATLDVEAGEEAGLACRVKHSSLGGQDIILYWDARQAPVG

CCOC=C1N=C(c2ccccc2)OC1=O [oxazolone, 4-ethoxymethylene-2-phenyl-2-oxazolin-5-one]
colitis induction ([1]; MTPflox/floxMx1Cre mice without pIpC): severe colitis

CCCCCCCCCCCCCCCCCCCCCCCCCC(=O)N[C@@H](CO[C@H]1O[C@H](CO)[C@H](O)[C@H](O)[C@H]1O)[C@H](O)[C@H](O)CCCCCCCCCCCCCC [αGalCer, α-galactosylceramide]
hepatitis induction ([2]; wild-type C57BL/6J and MTPflox/floxMx1Cre mice, without pIpC-induced deletion): induced hepatitis

MTP purified from rat liver (from UniProt D4A1W8 22-896; P04785 20-509)
MTP-mediated PE transfer to CD1d [3]: 0.4 to 1.6 picomoles
fluorescence of NBD-labeled PE transferred to plate-coated CD1d [3]: 5 fold

polyinosinic-polycytidylic ribonucleic acid [pIpC]
hepatic inflammation ([2]; mouse, in vivo): absence of inflammation
colitis in response to oxazolone ([1]; MTPflox/floxMx1Cre mice pretreated with pIpC): little evidence of colitis
colitis ([1]; WT B6 mice exposed to oxazolone with pIpC administration): not ameliorated
Serum triglycerides [4, 6]: 88.1 ± 6.6 mg/dL
Total S. Cholesterol [4, 6]: 96.2 ± 12.2 mg/dL
Serum triglycerides [4, 7]: 110.0 ± 11.2 mg/dL
Total S. Cholesterol [4, 7]: 127.0 ± 5.8 mg/dL
Serum triglycerides [4, 8]: 52.0 ± 7.5 mg/dL
Total S. Cholesterol [4, 8]: 55.1 ± 9.7 mg/dL
Serum triglycerides [4, 9]: 43.5 ± 7.3 mg/dL
Total S. Cholesterol [4, 9]: 49.2 ± 3.1 mg/dL
Mean fluorescence intensity ([5]; B6 mice): 8.0
Mean fluorescence intensity ([5]; MTPmx1 mice): 6.2 +/− 0.9*
CD1d expression ([5]; control wild-type mice injected with pIpC): No reduction
% CD1d+ ([5]; B6 mice): 42.2%
% CD1d+ ([5]; MTPmx1 mice): 29.9 +/− 4.7* %
